Reference: patent US20240000872A1, “NOVEL BACTERIOPHAGE THAT LYSES ACINETOBACTER GENUS BACTERIA HAVING RESISTANCE TO ANTIBIOTICS” (priority 2020, published 2024)

Tested on: Acinetobacter baumannii strains
Test: Antibiotic susceptibility test (CLSI disk diffusion test method, read per CLSI 2016); on antibiotic susceptibility S/I/R: key: ‘S’ means susceptible; ‘I’ means intermediate; ‘R’ means resistant; on antibiotic susceptibility class: key: ‘S’ means susceptible; ‘I’ means intermediate; ‘R’ means resistant; on susceptibility category (S/I/R): key: ‘S’ means susceptible; ‘I’ means intermediate; ‘R’ means resistant
Assay type: cell-based
Parameters: antibiotic susceptibility test value / susceptibility test value (number given before S/I/R) / antibiotic susceptibility value: unit not given here

cortrimoxazole
antibiotic susceptibility class (host strain YMC14/01/C29): R | antibiotic susceptibility test value (host strain YMC14/01/C29): 320 | antibiotic susceptibility class (host strain YMC14/01/IP122): S | antibiotic susceptibility test value (host strain YMC14/01/IP122): 20 | antibiotic susceptibility class (host strain YMC14/01/L8): R | antibiotic susceptibility test value (host strain YMC14/01/L8): 320 | antibiotic susceptibility class (host strain YMC14/01/P31): R | antibiotic susceptibility test value (host strain YMC14/01/P31): 160 | antibiotic susceptibility class (host strain YMC14/01/P117): R | antibiotic susceptibility test value (host strain YMC14/01/P117): 160 | antibiotic susceptibility class (host strain YMC14/01/P224): R | antibiotic susceptibility test value (host strain YMC14/01/P224): 320 | antibiotic susceptibility class (host strain YMC14/01/P727): R | antibiotic susceptibility test value (host strain YMC14/01/P727): 320 | antibiotic susceptibility class (host strain YMC14/01/P728): R | antibiotic susceptibility test value (host strain YMC14/01/P728): 160 | antibiotic susceptibility class (host strain YMC14/01/R130): R | antibiotic susceptibility test value (host strain YMC14/01/R130): 320 | antibiotic susceptibility class (host strain YMC14/01/R160): R | antibiotic susceptibility test value (host strain YMC14/01/R160): 320 | antibiotic susceptibility class (host strain YMC14/01/R198): R | antibiotic susceptibility test value (host strain YMC14/01/R198): 320 | antibiotic susceptibility class (host strain YMC14/01/R257): R | antibiotic susceptibility test value (host strain YMC14/01/R257): 320 | antibiotic susceptibility class (host strain YMC14/01/R270): R | antibiotic susceptibility test value (host strain YMC14/01/R270): 320 | antibiotic susceptibility class (host strain YMC14/01/R324): R | antibiotic susceptibility test value (host strain YMC14/01/R324): 160 | antibiotic susceptibility class (host strain YMC14/01/R443): R | antibiotic susceptibility test value (host strain YMC14/01/R443): 320 | antibiotic susceptibility class (host strain YMC14/01/R451): R | antibiotic susceptibility test value (host strain YMC14/01/R451): 320 | antibiotic susceptibility class (host strain YMC14/01/R560): R | antibiotic susceptibility test value (host strain YMC14/01/R560): 160 | antibiotic susceptibility class (host strain YMC14/01/R617): R | antibiotic susceptibility test value (host strain YMC14/01/R617): 320 | antibiotic susceptibility class (host strain YMC14/01/R671): R | antibiotic susceptibility test value (host strain YMC14/01/R671): 320 | antibiotic susceptibility class (host strain YMC14/01/R732): R | antibiotic susceptibility test value (host strain YMC14/01/R732): 320 | antibiotic susceptibility class (host strain YMC14/01/R767): R | antibiotic susceptibility test value (host strain YMC14/01/R767): 160 | antibiotic susceptibility class (host strain YMC14/01/R904): S | antibiotic susceptibility test value (host strain YMC14/01/R904): 20 | antibiotic susceptibility class (host strain YMC14/01/R905): R | antibiotic susceptibility test value (host strain YMC14/01/R905): 320 | antibiotic susceptibility class (host strain YMC14/01/R921): S | antibiotic susceptibility test value (host strain YMC14/01/R921): 40 | antibiotic susceptibility class (host strain YMC14/01/R941): R | antibiotic susceptibility test value (host strain YMC14/01/R941): 320 | antibiotic susceptibility class (host strain YMC14/01/R958): R | antibiotic susceptibility test value (host strain YMC14/01/R958): 320 | antibiotic susceptibility class (host strain YMC14/01/R1006): R | antibiotic susceptibility test value (host strain YMC14/01/R1006): 320 | antibiotic susceptibility class (host strain YMC14/01/R1199): R | antibiotic susceptibility test value (host strain YMC14/01/R1199): 160 | antibiotic susceptibility class (host strain YMC14/01/R1659): R | antibiotic susceptibility test value (host strain YMC14/01/R1659): 320 | antibiotic susceptibility class (host strain YMC14/01/R1722): R | antibiotic susceptibility test value (host strain YMC14/01/R1722): 320 | antibiotic susceptibility class (host strain YMC14/01/R1752): S | antibiotic susceptibility test value (host strain YMC14/01/R1752): 20 | antibiotic susceptibility class (host strain YMC14/01/R2429): R | antibiotic susceptibility test value (host strain YMC14/01/R2429): 160 | antibiotic susceptibility class (host strain YMC14/01/R2572): R | antibiotic susceptibility test value (host strain YMC14/01/R2572): 320 | antibiotic susceptibility class (host strain YMC14/01/R2855): R | antibiotic susceptibility test value (host strain YMC14/01/R2855): 320 | antibiotic susceptibility class (host strain YMC14/01/R2945): R | antibiotic susceptibility test value (host strain YMC14/01/R2945): 160 | antibiotic susceptibility class (host strain YMC14/01/R3007): S | antibiotic susceptibility test value (host strain YMC14/01/R3007): 20 | antibiotic susceptibility class (host strain YMC14/01/R3129): S | antibiotic susceptibility test value (host strain YMC14/01/R3129): 20 | antibiotic susceptibility class (host strain YMC14/01/R3317): R | antibiotic susceptibility test value (host strain YMC14/01/R3317): 160 | antibiotic susceptibility class (host strain YMC14/01/R3474): R | antibiotic susceptibility test value (host strain YMC14/01/R3474): 160 | antibiotic susceptibility class (host strain YMC14/01/R3574): R | antibiotic susceptibility test value (host strain YMC14/01/R3574): 160 | antibiotic susceptibility class (host strain YMC14/01/U313): R | antibiotic susceptibility test value (host strain YMC14/01/U313): 320 | antibiotic susceptibility class (host strain YMC14/01/U318): R | antibiotic susceptibility test value (host strain YMC14/01/U318): 320 | antibiotic susceptibility class (host strain YMC14/02/L18): R | antibiotic susceptibility test value (host strain YMC14/02/L18): 160 | antibiotic susceptibility class (host strain YMC14/02/P47): R | antibiotic susceptibility test value (host strain YMC14/02/P47): 320 | antibiotic susceptibility class (host strain YMC14/02/R1860): R | antibiotic susceptibility test value (host strain YMC14/02/R1860): 320 | antibiotic susceptibility class (host strain YMC14/02/R2417): R | antibiotic susceptibility test value (host strain YMC14/02/R2417): 320 | antibiotic susceptibility class (host strain YMC14/02/R2599): S | antibiotic susceptibility test value (host strain YMC14/02/R2599): 20 | antibiotic susceptibility class (host strain YMC14/02/R2668): R | antibiotic susceptibility test value (host strain YMC14/02/R2668): 320 | antibiotic susceptibility class (host strain YMC14/02/R2758): R | antibiotic susceptibility test value (host strain YMC14/02/R2758): 320 | antibiotic susceptibility class (host strain YMC14/02/R2781): R | antibiotic susceptibility test value (host strain YMC14/02/R2781): 160 | antibiotic susceptibility class (host strain YMC14/02/R3106): R | antibiotic susceptibility test value (host strain YMC14/02/R3106): 320 | antibiotic susceptibility class (host strain YMC14/02/R3419): R | antibiotic susceptibility test value (host strain YMC14/02/R3419): 320 | antibiotic susceptibility class (host strain YMC14/02/U1607): S | antibiotic susceptibility test value (host strain YMC14/02/U1607): 20 | antibiotic susceptibility class (host strain YMC14/03/L9): R | antibiotic susceptibility test value (host strain YMC14/03/L9): 160 | antibiotic susceptibility class (host strain YMC14/03/P471): S | antibiotic susceptibility test value (host strain YMC14/03/P471): 20 | antibiotic susceptibility class (host strain YMC14/03/R122): S | antibiotic susceptibility test value (host strain YMC14/03/R122): 20 | antibiotic susceptibility class (host strain YMC14/03/R217): R | antibiotic susceptibility test value (host strain YMC14/03/R217): 160 | antibiotic susceptibility class (host strain YMC14/03/R380): R | antibiotic susceptibility test value (host strain YMC14/03/R380): 320 | antibiotic susceptibility class (host strain YMC14/03/R618): S | antibiotic susceptibility test value (host strain YMC14/03/R618): 20 | antibiotic susceptibility class (host strain YMC14/03/R2144): R | antibiotic susceptibility test value (host strain YMC14/03/R2144): 160 | antibiotic susceptibility class (host strain YMC14/03/U4616): R | antibiotic susceptibility test value (host strain YMC14/03/U4616): 160 | antibiotic susceptibility class (host strain YMC14/04/R1078): S | antibiotic susceptibility test value (host strain YMC14/04/R1078): 20 | antibiotic susceptibility class (host strain YMC14/04/R1080): S | antibiotic susceptibility test value (host strain YMC14/04/R1080): 20 | antibiotic susceptibility S/I/R (host strain YMC14/06/R2359): R | antibiotic susceptibility value (host strain YMC14/06/R2359): 320 | susceptibility category (S/I/R) (host strain YMC14/06/R2359): R | susceptibility test value (number given before S/I/R) (host strain YMC14/06/R2359): 320 | antibiotic susceptibility S/I/R (host strain YMC14/08/R1169): R | antibiotic susceptibility value (host strain YMC14/08/R1169): 320 | susceptibility category (S/I/R) (host strain YMC14/08/R1169): R | susceptibility test value (number given before S/I/R) (host strain YMC14/08/R1169): 320 | antibiotic susceptibility S/I/R (host strain YMC14/08/T90): R | antibiotic susceptibility value (host strain YMC14/08/T90): 320 | susceptibility category (S/I/R) (host strain YMC14/08/T90): R | susceptibility test value (number given before S/I/R) (host strain YMC14/08/T90): 320 | antibiotic susceptibility S/I/R (host strain YMC15/02/R436): R | antibiotic susceptibility value (host strain YMC15/02/R436): 320 | susceptibility category (S/I/R) (host strain YMC15/02/R436): R | susceptibility test value (number given before S/I/R) (host strain YMC15/02/R436): 320 | antibiotic susceptibility S/I/R (host strain YMC15/02/T28): R | antibiotic susceptibility value (host strain YMC15/02/T28): 320 | susceptibility category (S/I/R) (host strain YMC15/02/T28): R | susceptibility test value (number given before S/I/R) (host strain YMC15/02/T28): 320 | antibiotic susceptibility S/I/R (host strain YMC15/03/R1604): R | antibiotic susceptibility value (host strain YMC15/03/R1604): 320 | susceptibility category (S/I/R) (host strain YMC15/03/R1604): R | susceptibility test value (number given before S/I/R) (host strain YMC15/03/R1604): 320 | antibiotic susceptibility S/I/R (host strain YMC15/09/R1869): R | antibiotic susceptibility value (host strain YMC15/09/R1869): 320 | susceptibility category (S/I/R) (host strain YMC15/09/R1869): R | susceptibility test value (number given before S/I/R) (host strain YMC15/09/R1869): 320 | antibiotic susceptibility S/I/R (host strain YMC16/01/P11): R | antibiotic susceptibility value (host strain YMC16/01/P11): 320 | susceptibility category (S/I/R) (host strain YMC16/01/P11): R | susceptibility test value (number given before S/I/R) (host strain YMC16/01/P11): 320 | antibiotic susceptibility S/I/R (host strain YMC16/01/R123): R | antibiotic susceptibility value (host strain YMC16/01/R123): 160 | susceptibility category (S/I/R) (host strain YMC16/01/R123): R | susceptibility test value (number given before S/I/R) (host strain YMC16/01/R123): 160 | antibiotic susceptibility S/I/R (host strain YMC16/01/R198): R | antibiotic susceptibility value (host strain YMC16/01/R198): 160 | susceptibility category (S/I/R) (host strain YMC16/01/R198): R | susceptibility test value (number given before S/I/R) (host strain YMC16/01/R198): 160 | antibiotic susceptibility S/I/R (host strain YMC16/01/R353): R
